SMILES strings stand for the structures.

One may read the LOAEL as the lowest tested level that showed an adverse finding. As usually defined, the NOAEL is the highest dose or exposure tested at which no adverse effect was seen. For orientation: LD50 means the dose at which mortality reaches 50%.

One data set deals with Gallus sp. The settings on record: repeat dose other; oral.
Data set [1] relates to Rattus norvegicus. As to the kind of experiment: LD0; higher = less toxic. The settings on record: acute; oral; gavage; Sprague-Dawley.
Data set [2] concerns Mus musculus. To be noted: repeat dose other; oral.
Data set [3] has as its system Homo sapiens. To be noted: clinical; oral; M/F; cholinesterase inhibition.
Data set [4] has as its system Canidae. To be noted: oral, Beagle.
Data set [5] has as its system Mus musculus. To be noted: acute; oral; NMRI.
The next data set relates to Oryctolagus sp. To be noted: acute, New Zealand.
The test system of data set [6] is Rattus norvegicus.
Data set [7] concerns Canidae. The settings on record: oral, M/F, Beagle.
Data set [8] concerns Homo sapiens. To be noted: clinical, oral.
A further data set relates to Anas platyrhynchos. The settings on record: oral.
For data set [9], the system named is Mus musculus. To be noted: subchronic; oral; M/F; nephropathy, increased liver weight, hematological alterations, and clinical effects.
The subject of data set [10] is Mus musculus. To be noted: oral, CD1.
In data set [11] the test system is Rattus norvegicus. The settings on record: uterotrophic; duration: 3 days; injection; subcutaneous; Active.
Data set [12] relates to Homo sapiens. To be noted: clinical; duration: 20 minutes; inhalation; M/F; neurological.
Data set [13] deals with Rattus norvegicus. The settings on record: acute; duration: 1 days; oral; gavage; M; Long-Evans; neurological.
Where [14] appears, read: chronic, duration: 1 years, diet, Increased plasma cholesterol (males).

For the molecule `[Cu+].[Cu+].[O-2]` [Cuprous oxide], in the data set on Gallus sp., the lowest observed adverse effect level (LOAEL) was 61.7 mg/kg-day and the NOAEL turned out to be 47 mg/kg-day.
`CCC(C#N)CC#N` (stereo not given) [2-Ethylbutanedinitrile] gave an LD0 in the data set on Rattus norvegicus [1] of less than 500 mg/kg.
`[Cl][Al]([Cl])[Cl]` [Aluminum chloride]: the LOAEL with Gallus sp. turned out to be 44.5 mg/kg-day; with Mus musculus [2] it was 19.3 mg/kg-day. The NOAEL with Mus musculus [2] turned out to be 1.93 mg/kg-day.
In the data set on Homo sapiens [3], `CNC(=O)O/N=C/C(C)(C)SC` [Aldicarb] had an LOAEL of 0.025 mg/kg-day and a no observed adverse effect level (NOAEL) of 0.01 mg/kg-day.
On to `CC(O)CN(CC(C)O)c1nc(Nc2ccc(S(=O)(=O)[O-])cc2)nc(Nc2ccc(/C=C/c3ccc(Nc4nc(Nc5ccc(S(=O)(=O)[O-])cc5)nc(N(CC(C)O)CC(C)O)n4)cc3S(=O)(=O)[O-])c(S(=O)(=O)[O-])c2)n1.[Na+].[Na+].[Na+].[Na+]` (stereo not given), for which the LC50 in the data set with Canidae [4] (acute) was more than 500 mg/kg; with Mus musculus [5], more than 1000 mg/kg; in the data set on Oryctolagus sp. (oral), more than 1000 mg/kg. In the data set with Rattus norvegicus [6] (acute, oral, Wistar), this molecule came in with a median lethal dose (LD50) of more than 2500 mg/kg. The no observed adverse effect level (NOAEL) worked out at 1020 mg/kg-day in the data set with Rattus norvegicus [6] (short-term, duration: 5 days, oral, gavage, F, Wistar); 1020 mg/kg-day in the data set on Rattus norvegicus [6] (short-term, duration: 5 days, oral, gavage, M, Wistar); 300 mg/kg-day in the data set on Rattus norvegicus [6] (subchronic, duration: 13 weeks, oral, gavage, F, Wistar); 300 mg/kg-day in the data set on Rattus norvegicus [6] (subchronic, duration: 13 weeks, oral, gavage, M, Wistar).
For `CC[C@@H](C(=O)O)[C@@H]1O[C@@H]([C@@H](C)[C@H](O)[C@H](C)C(=O)[C@H](CC)[C@H]2O[C@]3(C=C[C@@H](O)[C@]4(CC[C@@](C)([C@H]5CC[C@](O)(CC)[C@H](C)O5)O4)O3)[C@H](C)C[C@@H]2C)[C@@H](C)C[C@@H]1C` [Narasin], the NOAEL with Canidae [7] (chronic, duration: 1 years, capsule, Minimal to slight peripheral nerve changes & focal skeletal muscle degeneration) was 0.5 mg/kg-day.
`CC[C@@H]1CCN[C@H](C(=O)N[C@@H]([C@H]2O[C@H](SC)[C@H](O)[C@@H](O)[C@H]2O)[C@H](C)Cl)C1` [Pirlimycin] returned an NOEL in the data set on Homo sapiens [8] (capsule, M, Clostridium difficile in stool) of 50 mg.
`CC(CCc1ccc(O)cc1)NCC(O)c1ccc(O)cc1.Cl` (stereo not given) [Ractopamine hydrochloride] gave an NOEL in the data set on Homo sapiens [8] (M, Changes in cardiovascular function variables) of 0.067 mg/kg-day.
Take `N#Cc1c(N)nc(NC2CC2)nc1N` [Dicyclanil]: in the data set with Canidae [7] (setting [14]), the LOEL amounted to 4.4 mg/kg-day and the NOEL worked out at 0.71 mg/kg-day.
Consider `O=[As][O-].[Na+]` [Sodium arsenite], for which, in the data set on Anas platyrhynchos, the LOAEL is 12.8 mg/kg-day and the NOAEL was found to be 5.14 mg/kg-day.
`CN(C)[C@@H]1C(=O)C(C(N)=O)=C(O)[C@@]2(O)C(=O)C3=C(O)c4c(O)cccc4[C@@](C)(O)[C@H]3C[C@@H]12` [Tetracycline] registered an NOEL in the data set on Homo sapiens [8] (Selection of resistant bacterial strains) of 0.033 mg/kg-day.
For `CC(C)CC(C)(O)C#CC(C)(O)CC(C)C` (stereo not given) [2,4,7,9-Tetramethyl-5-decyne-4,7-diol], the LOAEL with Canidae [4] (chronic, duration: 130 days) was determined as 200 mg/kg-day. Further, the LD50 was more than 1000 mg/kg in the data set with Oryctolagus sp. (dermal, occlusive); more than 2000 mg/kg in the data set with Rattus norvegicus [6] (acute, dermal); more than 500 mg/kg in the data set with Rattus norvegicus [6] (acute, oral, Sprague-Dawley). In the data set on Rattus norvegicus [6] (acute, Inhalation), this molecule came in with an LC50 of more than 20 µg/mL. Moreover, the no-observed-adverse-effect level (NOAEL) was 500 mg/kg-day in the data set on Rattus norvegicus [6] (reproduction developmental, oral, diet, Sprague-Dawley, generation: F0); 500 mg/kg-day in the data set on Rattus norvegicus [6] (reproduction developmental, oral, diet, Sprague-Dawley, generation: F1); 5000 ppm in the data set with Rattus norvegicus [6] (short-term, duration: 28 days, oral, diet).
In the data set on Mus musculus [9], `c1ccc2c(c1)-c1cccc3cccc-2c13` [Fluoranthene] displayed an LOAEL of 250 mg/kg-day and a no-observed-adverse-effect level (NOAEL) of 125 mg/kg-day. Further, the LOAEL in the data set on Mus musculus [10] (subchronic, duration: 90 days, gavage, M/F, hepatic) was 125 mg/kg-day. Further, the LEL in the data set on Rattus norvegicus [11] came out at 10 mg/kg-day.
As for `CCC(=O)O.CCC(=O)O.O=C(Nc1cccc(C2=NCCN2)c1)Nc1cccc(C2=NCCN2)c1` [Imidocarb dipropionate], the NOEL with Canidae [7] (subchronic, duration: 90 days, capsule, Transient reducting in food intake & histopathology in the liver) stood at 5 mg/kg-day.
As for `Cc1ccccc1` [1-Methylbenzene], the lowest observed adverse effect level (LOAEL) with Mus musculus [2] turned out to be 260 mg/kg-day; with Homo sapiens [12] it was 56.5 mg/m3; with Rattus norvegicus [13], 250 mg/kg-day. For the same molecule, the NOAEL in the data set with Mus musculus [2] was 26 mg/kg-day; with Mus musculus [10] (short-term, duration: 28 days, drinking water, M, immunological), 22 mg/kg-day.
In the data set with Homo sapiens [8] (duration: 12 months, Change in gut flora), `CCC[C@@H]1C[C@@H](C(=O)N[C@@H]([C@H]2O[C@H](SC)[C@H](O)[C@@H](O)[C@H]2O)[C@@H](C)O)N(C)C1` [Lincomycin] returned an NOEL of 2.5 mg/kg-day.
Consider `COC(=O)Nc1nc2ccc(C(=O)c3ccc(F)cc3)cc2[nH]1` [Flubendazole], for which the NOEL amounted to 2.5 mg/kg-day in the data set on Canidae [7] (duration: 3 months, capsule, Atrophic change in prostate) and 2.5 mg/kg-day in the data set on Canidae [7] (subchronic, duration: 3 months, capsule, Atrophic change in prostate).

(Values after EPA's ToxValDB 9.5.)
